Assay results taken from US5889048A, “Methods and compositions for treating defective cell functions” (priority 1994, dated 1999).

Test system: L-41 cell line
Assay: cytostatic activity on reinoculated tumor culture of L-41 cell line (protein content, % cell growth inhibition)
Assay type: cell-based
Protocol: The […] activity of a pharmaceutical formulation of the invention was tested with using reinoculated tumor cell cultures.
In the studies a reinoculated leukocyte culture of L-41 strain was used.
The cell culture was incubated by the conventional method. The inoculate density was 1-10^5 cells in 1 ml of nutrient medium. […] On day 2 from the start of the study, a biological activity of the proposed formulation was estimated using 4-point scale. The assays for protein in cultures were performed by the Louri method modified by the Oyama and Eagle.
The cytostatic activity of the proposed formulation was evaluated as the % inhibition of cell culture growth by the suppression of protein production.
According to the existing standard techniques for screening the antitumor preparations, a pharmaceutical formulation is recognized to be efficient when its ED50 is less or equal to 100 μg/ml.
Comparison of biologic activity of the proposed pharmaceutical
reinoculated tumor culture of L-41 cell line

[1] = mercury dichloride alone 1.0 μg/ml
[2] = mercury dichloride alone 3.3 μg/ml
[3] = mercury dichloride alone 5.0 μg/ml
[4] = mercury dichloride alone 8.0 μg/ml

## [Cl][Hg][Cl] [Mercury dichloride, mercury dichloride]
L-41 culture, Table 1 data
  ED50: about 8 μg/ml
[1]
  % of cell growth inhibition: 1.2%
  Protein content: 390.3 ± 2.6 µg/mL
[2]
  % of cell growth inhibition: 5.1%
  Protein content: 279.0 ± 27.3 µg/mL
[3]
  % of cell growth inhibition: 12.9%
  Protein content: 256.0 ± 5.2 µg/mL
[4]
  % of cell growth inhibition: 47.6%
  Protein content: 154.0 ± 5.0 µg/mL
Preliminary experiment
  ED50 (preliminary experiment): < 10 µg/mL
